Laboratory results taken from patent US10822656B2, “Methods and systems for high-throughput toxicity screening of a compound using mahalanobis values” (priority 2017, dated 2020).

Test system: human hepatocytes (cell lines Hu1153, Hu1154, Hu1156, Hu1164)
Test: Transcriptomics Mahalanobis distance (MD) toxicity analysis of hepatocytes exposed in-vitro
Assay type: cell-based
Method: In one embodiment, four human donors were used to provide four independent cell lines of hepatocytes.
A number of the 192 genes were analyzed using more than one probe and as a result there were 465 different measurements or variables for each experiment. […] PPARα are nuclear receptor proteins of the hepatocyte that regulate gene expression through transcription factors and are essential in the regulation of lipid metabolism.
The MD is calculated as follows (Taguchi & R. Jungulum, 2002): MDj−Dj^2=Z′ijC^−1Zij, and Equation 1: Zij=(Xij−mi)/si Equation 2: Xij=value of the ith characteristic (gene) of the jth observation (experiment) mi=mean of the ith characteristic (gene) si=standard deviation of the ith characteristic (gene) Zij=(z1j, z2j, z3j, . . . , zkj) standardized vector of the standardized values of the Xij Zij′=transpose of the Zij standardized vector C^−1=inverse of the correlation matrix k=total number of gene measurements (e.g. 465 variables).
Data must be collected to identify the reference group from the unstressed cells. […] The MS will be determined by the normal group's mean and standard deviation vector, and the correlation matrix. The reference group will be referred to as the healthy/normal group. This is the most important aspect of the approach, as this MS will be the reference point in n-space. It is used to compare stressed hepatocyte data collected from the perturbed experiments. The measurement scale extends from the centroid of the MS and is typically one unit distance away. The centroid of the MS is the zero point for the measurement scale. The larger the Mahalanobis distance (MD) number the further it is from the centroid of the Mahalanobis space and the higher the risk from exposure. The Mahalanobis distance for each perturbed experiment will be derived from information describing the MS and will be shown below. The MD is a value that describes the relationship between the normal group and the experiment. As hepatocyte cells are stressed by varying concentrations and times of exposure, the same variables that were measured to establish the MS for the normal group will be used to determine a MD number for the experimental data. […] This MD number will be indicative of the experiments generalized distance from the centroid of the healthy/normal group. As concentration and time of exposure increases the MD number for that experiment could increase or decrease, depending on whether the stress of the genes are increasing or decreasing. In general, unstressed hepatocytes tend to look quite similar to the healthy/normal group, while stressed hepatocytes tend to look quite different from the healthy/normal group and will have a higher MD number. In addition, the changes in correlation structure among the stressed hepatocytes strongly affect the MD number. In the case where a hepatocyte's MD number reaches a predetermined high threshold value, genes may start to mutate rapidly. If the MD number becomes similar to those of the healthy/normal group, the risk associated to exposure by a particular compound could be considered a low risk from exposure.
Referring now to FIG. 14, in one embodiment, 20 different experiments were conducted to build the healthy/normal group where the cells were not exposed to chemical, e.g. GW7647. FIG. 14 is an illustration of a snapshot of the database of Normal Unexposed Observation Data where the transcriptomics data of four cell lines—1153, 1154, 1156, and 1164—are provided across five time periods—2, 6, 12, 24, and 72 hours.
This baseline information is used to determine the amount of stress the exposed cells are experiencing from the reference cell pattern of unstressed cells—the healthy/normal group. All the data collected in the 120 different experiments and 465 variables, used the same units of measure consistent with measuring differential gene expression data. […]

Q: With CC(C)(Sc1ccc(CCN(CCCCC2CCCCC2)C(=O)NC2CCCCC2)cc1)C(=O)O [GW7647] as the compound, how does the “share of the 192 significant genes showing up-regulation” value read?
A: Over 80%

Q: What about the “threshold level (minimum exposure time with significant response)” value (0.001 μM of concentration) of the same compound?
A: greater than 72 hours

Q: What about the “threshold level (minimum exposure time with significant response)” value (0.01 μM of concentration) of the same compound?
A: greater than 72 hours

Q: What about the “threshold level (minimum exposure time with significant response)” value (1 μM of concentration) of the same compound?
A: 2 h

Q: And the “threshold level (minimum exposure time with significant response)” value (10 μM of concentration)?
A: 2 h

Q: And the “threshold level (minimum concentration with significant response, p 0.05)” value (2 hours of exposure)?
A: 1 µM

Q: And the “threshold level (minimum concentration with significant response, p 0.05)” value (6 hours of exposure)?
A: 0.1 µM

Q: What about the “threshold level (minimum concentration with significant response, p 0.05)” value (12 hours of exposure) of the same compound?
A: 0.1 µM

Q: What about the “threshold level (minimum concentration with significant response, p 0.05)” value (24 hours of exposure) of the same compound?
A: 0.1 µM

Q: What about the “threshold level (minimum concentration with significant response, p 0.05)” value (72 hours of exposure) of the same compound?
A: 0.1 µM

Q: And the “MD number relative to baseline MD number of 18.05” value (72 hours of exposure, 10 μM, mean of four cell lines)?
A: 8.4 times

Q: And the “stress versus liver cells not exposed (significance of MD number)” value (concentration level 0.01 μM)?
A: no significant difference in stress

Q: What about the “stress versus liver cells not exposed (significance of MD number)” value (concentration level 001 μM (so in the source)) of the same compound?
A: no significant difference in stress

Q: And the “trend of MD number with time and concentration” value (human cell line 1153, similar for 1154, 1156, 1164)?
A: increases

Q: And the “trend of average MD number with exposure and concentration” value (mean of four human cell lines, 465 variables)?
A: increase

Q: What about the “mean MD number” value (mean of four human cell lines, 72 hours of exposure, 10 μM, 465 variables) of the same compound?
A: 151.76

Q: What about the “trend of average MD number with exposure and concentration” value (reduced sample set, only 10 genes, mean of four human cell lines) of the same compound?
A: increase

Q: And the “genes of significance that exhibited a reaction, of 14,000 genes examined by micro-array” value (varying times and concentrations)?
A: 192 genes
